Reference: ChEMBL document CHEMBL5214900, “Design, Synthesis, and Biological Evaluation of Membrane-Active Bakuchiol Derivatives as Effective Broad-Spectrum Antibacterial Agents” (J Med Chem, 2021)
In brackets after ≈: the same amount, converted by molar mass.

How the values were obtained:
[1] = test system: Staphylococcus aureus; experiment: Induction of drug resistance in Staphylococcus aureus ATCC 29213 assessed as fold change in MIC measured after 19 passages by CLSI based broth dilution method; type: functional
[2] = test system: Staphylococcus aureus; experiment: Antibacterial activity against Staphylococcus aureus ATCC 29213 assessed as inhibition of bacterial growth incubated for 24 hrs by CLSI based broth dilution method; type: functional
[3] = test system: Staphylococcus aureus; experiment: Antibacterial activity against methicillin-resistant Staphylococcus aureus N315 assessed as inhibition of bacterial growth incubated for 24 hrs by CLSI based broth dilution method; type: functional
[4] = test system: Staphylococcus aureus; experiment: Antibacterial activity against methicillin-resistant Staphylococcus aureus NCTC10442 assessed as inhibition of bacterial growth incubated for 24 hrs by CLSI based broth dilution method; type: functional
[5] = test system: Staphylococcus aureus; experiment: Bactericidal activity against Staphylococcus aureus ATCC 29213 assessed as log reduction in viable bacteria at 8 times MIC measured after 8 hrs by time-killing assay; type: functional
[6] = test system: Staphylococcus aureus; experiment: Antibacterial activity against Staphylococcus aureus ATCC 29213 in C57BL/6 mouse model of bacterial keratitis assessed as log reduction in number of viable bacterial colonies in infected cornea at 50 mg/ml, TOP administered 4 times a day for 3 consecutive days; type: functional; conditions: time 3 day
[7] = test system: Escherichia coli; experiment: Antibacterial activity against Escherichia coli ATCC 25922 assessed as inhibition of bacterial growth incubated for 24 hrs by CLSI based broth dilution method; type: functional
[8] = Hemolytic activity in rabbit RBC measured after 1 hrs by multimode reader assay; type: toxicity, cell-based, Oryctolagus cuniculus, Erythrocyte; conditions: rabbit red blood cells (erythrocytes)
[9] = test system: Pseudomonas aeruginosa; experiment: Antibacterial activity against Pseudomonas aeruginosa ATCC 9027 assessed as inhibition of bacterial growth incubated for 24 hrs by CLSI based broth dilution method; type: functional
[10] = test system: Acinetobacter baumannii; experiment: Antibacterial activity against Acinetobacter baumannii ATCC 17978 assessed as inhibition of bacterial growth incubated for 24 hrs by CLSI based broth dilution method; type: functional
[11] = test system: Acinetobacter baumannii; experiment: Antibacterial activity against Acinetobacter baumannii R2889 assessed as inhibition of bacterial growth incubated for 24 hrs by CLSI based broth dilution method; type: functional
[12] = test system: Klebsiella pneumoniae; experiment: Antibacterial activity against Klebsiella pneumoniae ATCC 10031 assessed as inhibition of bacterial growth incubated for 24 hrs by CLSI based broth dilution method; type: functional
[13] = test system: Klebsiella pneumoniae; experiment: Antibacterial activity against Klebsiella pneumoniae ATCC 14581 assessed as inhibition of bacterial growth incubated for 24 hrs by CLSI based broth dilution method; type: functional
[14] = test system: Staphylococcus aureus; experiment: Antibacterial activity against Staphylococcus aureus ATCC 29213 assessed as fold increase in MIC incubated for 24 hrs in presence of 140 mM Na+ by CLSI based broth dilution method; type: functional
[15] = test system: Staphylococcus aureus; experiment: Antibacterial activity against Staphylococcus aureus ATCC 29213 assessed as fold increase in MIC incubated for 24 hrs in presence of 4.5 mM K+ by CLSI based broth dilution method; type: functional
[16] = test system: Staphylococcus aureus; experiment: Antibacterial activity against Staphylococcus aureus ATCC 29213 assessed as fold increase in MIC incubated for 24 hrs in presence of 2.5 mM Ca2+ by CLSI based broth dilution method; type: functional
[17] = test system: Staphylococcus aureus; experiment: Antibacterial activity against Staphylococcus aureus ATCC 29213 assessed as fold increase in MIC incubated for 24 hrs in presence of 1 mM Mg2+ by CLSI based broth dilution method; type: functional
[18] = test system: Staphylococcus aureus; experiment: Antibacterial activity against Staphylococcus aureus NCTC10442 assessed as fold increase in MIC incubated for 24 hrs in presence of 140 mM Na+ by CLSI based broth dilution method; type: functional
[19] = test system: Staphylococcus aureus; experiment: Antibacterial activity against Staphylococcus aureus NCTC10442 assessed as fold increase in MIC incubated for 24 hrs in presence of 4.5 mM K+ by CLSI based broth dilution method; type: functional
[20] = test system: Staphylococcus aureus; experiment: Antibacterial activity against Staphylococcus aureus NCTC10442 assessed as fold increase in MIC incubated for 24 hrs in presence of 2.5 mM Ca2+ by CLSI based broth dilution method; type: functional
[21] = test system: Staphylococcus aureus; experiment: Antibacterial activity against Staphylococcus aureus NCTC10442 assessed as fold increase in MIC incubated for 24 hrs in presence of 1 mM Mg2+ by CLSI based broth dilution method; type: functional
[22] = test system: Acinetobacter baumannii; experiment: Antibacterial activity against Acinetobacter baumannii ATCC 17978 assessed as fold increase in MIC incubated for 24 hrs in presence of 140 mM Na+ by CLSI based broth dilution method; type: functional
[23] = test system: Acinetobacter baumannii; experiment: Antibacterial activity against Acinetobacter baumannii ATCC 17978 assessed as fold increase in MIC incubated for 24 hrs in presence of 4.5 mM K+ by CLSI based broth dilution method; type: functional
[24] = test system: Acinetobacter baumannii; experiment: Antibacterial activity against Acinetobacter baumannii ATCC 17978 assessed as fold increase in MIC incubated for 24 hrs in presence of 2.5 mM Ca2+ by CLSI based broth dilution method; type: functional
[25] = test system: Acinetobacter baumannii; experiment: Antibacterial activity against Acinetobacter baumannii ATCC 17978 assessed as fold increase in MIC incubated for 24 hrs in presence of 1 mM Mg2+ by CLSI based broth dilution method; type: functional
[26] = test system: Escherichia coli; experiment: Antibacterial activity against Escherichia coli ATCC 25922 assessed as fold increase in MIC incubated for 24 hrs in presence of 140 mM Na+ by CLSI based broth dilution method; type: functional
[27] = test system: Escherichia coli; experiment: Antibacterial activity against Escherichia coli ATCC 25922 assessed as fold increase in MIC incubated for 24 hrs in presence of 4.5 mM K+ by CLSI based broth dilution method; type: functional
[28] = test system: Escherichia coli; experiment: Antibacterial activity against Escherichia coli ATCC 25922 assessed as fold increase in MIC incubated for 24 hrs in presence of 2.5 mM Ca2+ by CLSI based broth dilution method; type: functional
[29] = test system: Escherichia coli; experiment: Antibacterial activity against Escherichia coli ATCC 25922 assessed as fold increase in MIC incubated for 24 hrs in presence of 1 mM Mg2+ by CLSI based broth dilution method; type: functional
[30] = test system: Pseudomonas aeruginosa; experiment: Antibacterial activity against Pseudomonas aeruginosa ATCC 9027 in C57BL/6 mouse model of bacterial keratitis assessed as log reduction in number of viable bacterial colonies in infected cornea at 3 mg/ml, TOP administered 4 times a day for 3 consecutive days; type: functional; conditions: time 3 day
[31] = Dissociation constant, pKa of compound by potentiometric titration method; type: physicochemical
[32] = test system: Escherichia coli; experiment: Bactericidal activity against Escherichia coli ATCC 25922 assessed as log reduction in viable bacteria at 8 times MIC measured after 2 hrs by time-killing assay; type: functional
[33] = test system: Escherichia coli; experiment: Induction of drug resistance in Escherichia coli ATCC 25922 assessed as fold change in MIC measured after 19 passages by CLSI based broth dilution method; type: functional

SMILES | MIC [2] [mg/L] | MIC [3] [mg/L] | MIC [4] [mg/L] | MIC [7] [mg/L] | HC50 at 1 h [8] [µg/mL] | fold change (FC) [14] | fold change (FC) [15] | fold change (FC) [16] | fold change (FC) [17] | fold change (FC) [18] | fold change (FC) [19] | fold change (FC) [20] | fold change (FC) [21] | fold change (FC) [22] | fold change (FC) [23] | fold change (FC) [24] | fold change (FC) [25] | fold change (FC) [26] | fold change (FC) [27] | fold change (FC) [28] | also measured
CCn1cc(C(=O)O)c(=O)c2cc(F)c(N3CCNCC3)cc21 |  |  |  |  |  |  |  |  |  |  |  |  |  |  |  |  |  |  |  |  | fold change (FC) [1]: 32
CN[C@H](CC(C)C)C(=O)N[C@H]1C(=O)N[C@@H](CC(N)=O)C(=O)N[C@H]2C(=O)N[C@H]3C(=O)N[C@H](C(=O)N[C@H](C(=O)O)c4cc(O)cc(O)c4-c4cc3ccc4O)[C@H](O)c3ccc(c(Cl)c3)Oc3cc2cc(c3O[C@@H]2O[C@H](CO)[C@@H](O)[C@H](O)[C@H]2O[C@H]2C[C@](C)(N)[C@H](O)[C@H](C)O2)Oc2ccc(cc2Cl)[C@H]1O [VANCOMYCIN] | 0.78 (≈ 0.538 µM) | 1.56 (≈ 1.08 µM) | 1.56 (≈ 1.08 µM) |  |  |  |  |  |  |  |  |  |  |  |  |  |  |  |  |  | log(activity) [5]: 1.22; log(activity) [6]: 6.05
C=C[C@@](C)(/C=C/c1ccc(OCCCCN(C)CCCN(C)CCCNC)cc1)CCC=C(C)C | 1.56 (≈ 3.22 µM) | 0.78 (≈ 1.61 µM) | 1.56 (≈ 3.22 µM) | 1.56 (≈ 3.22 µM) | 56.6 | <2 | <2 | <2 | <2 | <2 | <2 | <2 | <2 | <2 | <2 | <2 | <2 | <2 | <2 | <2 | MIC [9]: 3.12 mg/L (≈ 6.46 µM); MIC [10]: 3.12 mg/L (≈ 6.46 µM); MIC [11]: 3.12 mg/L (≈ 6.46 µM); MIC [12]: 1.56 mg/L (≈ 3.22 µM); MIC [13]: 1.56 mg/L (≈ 3.22 µM); fold change (FC) [29]: <2
COc1c(N2CCNC(C)C2)c(F)cc2c(=O)c(C(=O)O)cn(C3CC3)c12 (stereo unspecified) [GATIFLOXACIN] |  |  |  |  |  |  |  |  |  |  |  |  |  |  |  |  |  |  |  |  | log(activity) [30]: 3.15
C=C[C@@](C)(/C=C/c1ccc(OCCCCN2CCSCC2)cc1)CCC=C(C)C | > 50 | > 50 | > 50 | > 100 | > 200 |  |  |  |  |  |  |  |  |  |  |  |  |  |  |  | pKa [31]: 8.41
C=C[C@@](C)(/C=C/c1ccc(OCCCCNC(=N)N)cc1)CCC=C(C)C | 3.12 (≈ 8.46 µM) | 1.56 (≈ 4.22 µM) | 3.12 (≈ 8.46 µM) | 25 (≈ 67.6 µM) | 75.7 |  |  |  |  |  |  |  |  |  |  |  |  |  |  |  | pKa [31]: 11.4
C=C[C@@](C)(/C=C/c1ccc(OCCCCN2CCNCCNCCNCCNCC2)cc1)CCC=C(C)C | 1.56 (≈ 2.97 µM) | 0.78 (≈ 1.48 µM) | 1.56 (≈ 2.97 µM) | 6.25 (≈ 11.9 µM) | 75.2 | <2 | <2 | <2 | <2 | <2 | <2 | <2 | <2 | <2 | <2 | <2 | <2 | <2 | <2 | <2 | fold change (FC) [29]: <2
CC1(C)S[C@@H]2[C@H](NC(=O)[C@H](N)c3ccc(O)cc3)C(=O)N2[C@H]1C(=O)O [AMOXICILLIN] |  |  |  |  |  |  |  |  |  |  |  |  |  |  |  |  |  |  |  |  | log(activity) [32]: 1.22; fold change (FC) [33]: 16
C=C[C@@](C)(/C=C/c1ccc(OCCCCN)cc1)CCC=C(C)C | 1.56 (≈ 4.76 µM) | 0.78 (≈ 2.38 µM) | 1.56 (≈ 4.76 µM) | 12.5 (≈ 38.2 µM) | 65.9 |  |  |  |  |  |  |  |  |  |  |  |  |  |  |  | pKa [31]: 9.54
C=C[C@@](C)(/C=C/c1ccc(OCCCCN2CCCNCCNCCCNCC2)cc1)CCC=C(C)C | 0.78 (≈ 1.53 µM) | 0.78 (≈ 1.53 µM) | 0.78 (≈ 1.53 µM) | 3.12 (≈ 6.12 µM) | 62.7 | <2 | <2 | <2 | <2 | <2 | <2 | <2 | <2 | <2 | <2 | <2 | <2 | <2 | <2 | <2 | MIC [9]: 12.5 mg/L (≈ 24.5 µM); MIC [10]: 3.12 mg/L (≈ 6.12 µM); MIC [11]: 3.12 mg/L (≈ 6.12 µM); MIC [12]: 1.56 mg/L (≈ 3.05 µM); MIC [13]: 3.12 mg/L (≈ 6.12 µM); fold change (FC) [29]: <2
C=C[C@@](C)(/C=C/c1ccc(OCCCCNCCN(CCN)CCN)cc1)CCC=C(C)C | 0.78 (≈ 1.71 µM) | 0.78 (≈ 1.71 µM) | 0.78 (≈ 1.71 µM) | 3.12 (≈ 6.84 µM) | 32.9 | <2 | <2 | <2 | <2 | <2 | <2 | <2 | <2 | <2 | <2 | <2 | <2 | <2 | <2 | <2 | MIC [9]: 3.12 mg/L (≈ 6.84 µM); MIC [10]: 6.25 mg/L (≈ 13.7 µM); MIC [11]: 6.25 mg/L (≈ 13.7 µM); MIC [12]: 1.56 mg/L (≈ 3.42 µM); MIC [13]: 1.56 mg/L (≈ 3.42 µM); fold change (FC) [29]: <2
